# Reference: patent publication US9309308B2, “Monoclonal antibodies for tumor treatment” (CURETECH LTD., priority 2008, dated 2016)
# Values joined by “and” are separate entries in the source; they are usually repeats but may differ in a detail not shown here. Identical values can stand only once. Like-named read-outs stand apart in the source and are kept apart here.
# Columns and labels:
# [1] = test system: murine lymphocytes; assay: In vitro functional assay based on viability of murine lymphocytes; assay type: cell-based
# Method: FIG. 1C. The effect of 5FU or vehicle control in the functional assay presented as viable cells/ml. The incubation time with 5FU or vehicle control (72 hours) is indicated on the x-axis.
# [2] = molecular target: T1, topoisomerase I (Homo sapiens, UniProt P11387); settings: cited from earlier work
# T1 sequence (P11387 1-765): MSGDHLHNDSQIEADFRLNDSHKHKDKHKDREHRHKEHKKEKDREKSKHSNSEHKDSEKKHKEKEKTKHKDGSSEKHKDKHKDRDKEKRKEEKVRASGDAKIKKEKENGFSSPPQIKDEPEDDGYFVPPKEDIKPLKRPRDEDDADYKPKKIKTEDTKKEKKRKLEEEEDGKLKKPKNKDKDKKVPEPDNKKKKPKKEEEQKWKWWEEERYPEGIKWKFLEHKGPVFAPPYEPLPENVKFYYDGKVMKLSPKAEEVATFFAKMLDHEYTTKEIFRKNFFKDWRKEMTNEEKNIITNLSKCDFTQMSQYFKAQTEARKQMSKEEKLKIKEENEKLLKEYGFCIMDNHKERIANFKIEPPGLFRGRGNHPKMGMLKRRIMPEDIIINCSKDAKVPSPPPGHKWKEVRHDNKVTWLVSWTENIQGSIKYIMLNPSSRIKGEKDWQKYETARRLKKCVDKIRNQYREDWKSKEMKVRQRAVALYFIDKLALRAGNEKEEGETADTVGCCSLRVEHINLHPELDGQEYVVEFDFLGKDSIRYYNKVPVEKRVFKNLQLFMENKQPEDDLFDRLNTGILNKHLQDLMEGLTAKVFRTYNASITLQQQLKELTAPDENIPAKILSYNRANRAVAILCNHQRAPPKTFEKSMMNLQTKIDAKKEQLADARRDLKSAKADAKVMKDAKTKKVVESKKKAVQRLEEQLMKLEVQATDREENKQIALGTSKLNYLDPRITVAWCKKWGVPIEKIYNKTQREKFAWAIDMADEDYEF
# [3] = test system: advanced hematological malignancies
# [4] = human, in vivo
# [5] = Phase I clinical trial of CT-011, pharmacokinetics; settings: Table 2 patients
# [6] = murine lymphocytes, agent combined with hBAT-1
# [7] = AML patient receiving CT-011 at 0.2 and 3 mg/kg
# [8] = Pt. 003/016, AML, 0.2/3.0 mg/kg
molecule,measurement,setting,value
"O=c1[nH]cc(F)c(=O)[nH]1 [5FU, 5-fluorouracil]",effect of chemotherapeutic agent on the activity of hBAT-1,[1]; [6],do not adversely affect the activity of hBAT-1
same,cell survival with chemotherapeutic agent on its own,"[1]; without hBAT-1, FIG. 1C",did not enhance cell survival
"CCc1c2c(nc3ccc(O)cc13)-c1cc3c(c(=O)n1C2)COC(=O)[C@]3(O)CC [SN-38, 7-ethyl-10-hydroxy-camptothecin]",cell survival when given in combination with hBAT-1,[1],do not enhance cell survival
same,potency relative to parent compound irinotecan,[2],One thousand-fold more potent
"N.N.[Cl][Pt][Cl] [cisplatin, cis-diamminedichloridoplatinum II]",effect of chemotherapeutic agent on the activity of hBAT-1,[1]; [6],do not adversely affect the activity of hBAT-1
O=P1(N(CCCl)CCCl)NCCCO1 (stereo not drawn) [cyclophosphamide],cell survival when given in combination with hBAT-1,[1]; murine lymphocyte culture,do not enhance cell survival
Nc1ccn([C@@H]2O[C@H](CO)[C@@H](O)[C@@H]2O)c(=O)n1 [cytarabine],effect of chemotherapeutic agent on the activity of hBAT-1,[1]; [6],do not adversely affect the activity of hBAT-1
O=C1[O][Pt]2([NH][C@@H]3CCCC[C@H]3[NH]2)[O]C1=O [oxaliplatin],effect of chemotherapeutic agent on the activity of hBAT-1,[1],do not adversely affect the activity of hBAT-1
CC(=O)O[C@H]1C(=O)[C@@]2(C)[C@H]([C@H](OC(=O)c3ccccc3)[C@]3(O)C[C@H](OC(=O)[C@H](O)[C@@H](NC(=O)c4ccccc4)c4ccccc4)C(C)=C1C3(C)C)[C@]1(OC(C)=O)CO[C@@H]1C[C@@H]2O [paclitaxel],effect of chemotherapeutic agent on the activity of hBAT-1,[1]; [6],do not adversely affect the activity of hBAT-1
hBAT-1: humanized monoclonal antibody with CDRs of murine mBAT-1 and human framework regions,patients reporting adverse events (AE),[3]; 11 of 18,61%
same,changes in disease parameters,"[3]; 21 days, 2 CLL, 4 NHL and one Multiple Myeloma patient",no changes in disease parameters
same,clinical response,[3]; [7],minimal response
same,time to progression after receiving CT-011,[3]; [7],61 weeks
same,change in average percentage of blasts in the peripheral blood,"[3]; AML patients, 21 days, excluding one patient",no change
same,duration of stable disease,"[3]; CLL patient, 0.6 mg/kg",36 weeks
same,duration of stable disease,"[3]; CLL patient, 1.5 mg/kg",over 78 weeks
same,duration of stable disease,"[3]; HD patient, 0.6 mg/kg",35 weeks
same,duration of stable disease,"[3]; MM patient, 6.0 mg/kg",over 60 weeks
same,Overall Survival (Weeks),[3]; [8],61 Weeks
same,platelet transfusion-independent period,[3]; [8],for 9 months
same,reduction in peripheral blasts,"[3]; Pt. 003/016, AML, on first dose (0.2 mg/kg)",(50% to 5%) on first dose
same,Overall Survival (Weeks),"[3]; Pt. 005, CLL, 0.6 mg/kg",36 Weeks
same,Overall Survival (Weeks),"[3]; Pt. 006, HD, 0.6 mg/kg",35 Weeks
same,Overall Survival (Weeks),"[3]; Pt. 008, CLL, 1.5 mg/kg",>78 Weeks
same,duration stable,"[3]; Pt. 008, CLL, 1.5 mg/kg",Stable for >17 months
same,Overall Survival (Weeks),"[3]; Pt. 015, NHL, 3.0 mg/kg",>68 Weeks
same,tumor masses by CT scan,"[3]; Pt. 015, follicular lymphoma, 10 months post CT-011 treatment",complete elimination of tumor masses
same,Overall Survival (Weeks),"[3]; Pt. 017, MM, 6.0 mg/kg",>60 Weeks
same,duration stable,"[3]; Pt. 017, MM, 6.0 mg/kg",Stable for >13 months
same,cumulative survival of all patients,"[3]; at 21 days, n=18",76%
same,most frequent AE,[3]; concluded not associated with CT-011 treatment,diarrhea
same,patients with apparent response to treatment,[3]; follow-up,6 patients
same,mean survival time,"[3]; follow-up beyond 21 days, all patients, listed as CT-011",25±27 weeks and 25 weeks
same,difference in mean survival time across the dose groups,"[3]; human, in vivo",No difference
same,serious adverse events,"[3]; number, all resulted in death, in AML patients",Four
same,sustained remission,"[3]; patient #015, following CT-011 treatment",68 weeks
same,clinical response,"[3]; patient #015, stage III follicular lymphoma, 3.0 mg/kg",complete remission
same,dose-limiting toxicity (DLT),[3]; single dose 0.2 to 6 mg/kg,No DLT was reached
same,maximum tolerated dose (MTD),[3]; single dose 0.2 to 6 mg/kg,No single dose MTD was found
same,safety and tolerability,[3]; single dose 0.2 to 6 mg/kg,safe and well tolerated with no treatment-related toxicities
same,highest half life,[4],17.1 days
same,median t1/2 of the 6 patients with apparent clinical response versus the rest,[5],somewhat higher than that of the rest of the patients
